Results reported in article PMC5908839 (Scientific Reports, 2018).
pKd: −log10 of the molar value.

Target: T1, AioX (Pseudorhizobium banfieldiae, UniProt L0NML6)
T1 construct: 304 amino acid residues; His-tag removed; SeMet-labelled
T1 sequence (L0NML6 27-304): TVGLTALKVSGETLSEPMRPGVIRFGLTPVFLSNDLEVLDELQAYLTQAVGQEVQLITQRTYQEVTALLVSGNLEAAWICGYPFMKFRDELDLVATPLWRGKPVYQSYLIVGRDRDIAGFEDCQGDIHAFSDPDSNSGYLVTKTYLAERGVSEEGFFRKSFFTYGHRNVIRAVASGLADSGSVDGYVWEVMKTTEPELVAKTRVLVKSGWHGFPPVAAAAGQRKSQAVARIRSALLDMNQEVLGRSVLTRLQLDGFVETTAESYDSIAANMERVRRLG
Test: X-ray crystal structure ([…] Å; phosphate from the crystallisation conditions); no binding detected by ITC

Work on `O=P(O)(O)O` [phosphate] yielded a pKd of under 2.70.
